Measured values published in PMC13081163, “Discovery of a novel Nrf2 activator that modulates mitochondrial function in neurons by regulating DHRS3-Nrf2 interaction after ischemic stroke” (Theranostics, 2026).
Where two headings read alike, the source gives them in different places.

Tests used:
DHRS3-Nrf2 interaction = target: T1, DHRS3-Nrf2 interaction (Homo sapiens, UniProt O75911); test: GST pull-down of Nrf2 and DHRS3; format: binding; conditions: 100 nM, purified GST-tagged Nrf2 and DHRS3 proteins
T1 construct: purchased Ybio YB710012 (GST-Nrf2); YB765100 (DHRS3)
T1 sequence (O75911 1-302): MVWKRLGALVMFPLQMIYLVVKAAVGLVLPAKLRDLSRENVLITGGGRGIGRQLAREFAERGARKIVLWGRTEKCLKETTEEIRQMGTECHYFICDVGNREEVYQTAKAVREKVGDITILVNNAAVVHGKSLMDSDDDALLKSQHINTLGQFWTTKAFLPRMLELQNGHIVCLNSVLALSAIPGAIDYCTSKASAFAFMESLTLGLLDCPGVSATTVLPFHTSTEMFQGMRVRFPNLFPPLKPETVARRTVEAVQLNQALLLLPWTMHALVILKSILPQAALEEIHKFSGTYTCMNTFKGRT
Procedure: GST-Nrf2 (YB710012, Ybio, China) or GST (Ag0040, Proteintech, China, as control) proteins were mixed with GST Resin (EA-IP-K008, Elabscience Biotechnology, China) for 2 h incubation on the shaker at 4 °C. Subsequently, both Cpd.51 (100 nM) and DHRS3 (YB765100, Ybio, China) were added to the mixture and rotated overnight at 4 °C [40]. Then, following the instructions, the sample buffer was added and heated to 100 °C for 10 min. After completing all steps, the mixture was centrifuged, and the supernatant was collected for western blotting analysis.

[1] = target: Human recombinant Keap1 proteins (Homo sapiens, UniProt Q14145); test: SPR binding to full-length Keap1; design: purchased Sinobiological ME18DE0203; conditions: read-out: KD, full-length Keap1 protein
Sequence of Human recombinant Keap1 proteins (Q14145 whole entry, the tested form may be a part): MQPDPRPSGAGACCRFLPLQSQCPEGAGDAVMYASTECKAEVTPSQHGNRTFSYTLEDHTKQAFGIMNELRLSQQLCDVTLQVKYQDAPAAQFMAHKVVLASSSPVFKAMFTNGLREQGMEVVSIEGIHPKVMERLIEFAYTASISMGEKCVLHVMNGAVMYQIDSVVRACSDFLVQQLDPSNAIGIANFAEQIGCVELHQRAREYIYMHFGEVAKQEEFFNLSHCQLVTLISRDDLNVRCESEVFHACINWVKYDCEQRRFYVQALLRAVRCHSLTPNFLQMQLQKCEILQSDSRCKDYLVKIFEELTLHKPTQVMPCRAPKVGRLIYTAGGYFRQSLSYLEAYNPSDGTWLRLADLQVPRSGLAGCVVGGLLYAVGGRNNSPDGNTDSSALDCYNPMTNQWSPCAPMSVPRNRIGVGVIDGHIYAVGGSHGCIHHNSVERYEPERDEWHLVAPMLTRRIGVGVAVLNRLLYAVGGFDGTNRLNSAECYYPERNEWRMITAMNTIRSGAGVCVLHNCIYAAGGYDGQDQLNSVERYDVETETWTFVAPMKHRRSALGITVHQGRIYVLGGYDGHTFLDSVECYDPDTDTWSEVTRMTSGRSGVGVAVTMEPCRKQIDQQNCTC
Procedure: The binding affinity of Cpd.51 or Oma to Keap1 proteins were measured using a Biacore T200. The overall experimental procedures were based on previous reports, [28]. Human recombinant Keap1 proteins or truncated form of Keap1 (residues 48-180 and residues 48-149) were captured on a CM5 chip by a standard amine coupling procedure. Binding sensorgrams were recorded by injecting various concentrations of Cpd.51 over the immobilized proteins surface. The dissociation constant was obtained by globally fitting the data (to the 1:1 Langmuir binding model using the Biacore Insight evaluation software (Cytiva, Marlborough, MA, USA). Affinity tests for Cpd.51 and DHRS3 were also performed using the aforementioned method.

[2] = Microsomal metabolic stability, rat; format: in vitro ADME; conditions: rat liver microsomes
Procedure: The liver microsomal incubation system comprised human, dog, or rat liver microsomal protein (0.75 mg/mL), nicotinamide adenine dinucleotide phosphate (NADPH) generation system, potassium phosphate buffer (0.1 M, pH 7.4), substrate, and inhibitor. The assay was conducted by first preparing a potassium phosphate buffer. Compounds and liver microsomes were then diluted and pre-incubated at 37 °C before initiating the reaction with NADPH. Aliquots were quenched with acetonitrile containing internal standard at specified time points. After sample processing (shaking and centrifugation), the supernatants were analyzed by LC-MS/MS to determine metabolic stability.

SH-SY5Y cells = test: Protection against OGD/R damage in SH-SY5Y cells (CCK-8); format: cell-based, human; conditions: for EC50: Homo sapiens
Procedure: To mimic ischemic conditions in vitro, cells were washed with PBS and then cultured for 2.5 h at 37 °C in glucose-free medium under anaerobic conditions (5% hydrogen, 90% nitrogen, and 5% carbon dioxide). OGD process was terminated by transferring cells back to normal glucose-containing medium under normoxic conditions (5% CO₂, 37 °C) and maintained for 24 h.
In the administration group, cells were exposed for 12 h with Cpd.51 prior to OGD. OGD lasted for 2.5 h and the reperfusion lasted for 24 h before the experiment was concluded. Subsequently, cell viability was determined using the cell counting kit-8 (CCK-8, C0039, Beyotime, China). In the experiment to explore the treatment time window, the only difference was the timing of the Cpd.51 treatment, while all other procedures remained unchanged.
Hek-293T cells were transiently transfected, using Lipofectamine™ 3000 and P3000™ reagent (L3000075, Invitrogen, USA) according to the manufacturer's instructions, with the wild-type, point-mutant and double-mutations constructs of Keap1, DHRS3 or Nrf2 (each at 0.5 ng/μL), respectively. Similarly, to promote the expression of the DHRS3 gene, a DHRS3 expression plasmids (0.5 ng/μL) was transfected as well as the corresponding negative controls into SH-SY5Y cells for 6 h, and further cultured with fresh medium for 18 h according to the manufacturer's instructions.

In the case of `CC1(C)CCC2(C(=O)NO)CCC3(C)C(C(=O)C=C4C5(C)C=C(C#N)C(=O)C(C)(C)C5CCC43C)C2C1` (stereo not drawn) [Cpd.51], the “direct DHRS3-Nrf2 binding (GST pull-down)” value (DHRS3-Nrf2 interaction) is reported as “significantly reduced”, the Kd [1] is reported as 53900 nM and the “Remainig (%, t = 60 min)” value [2] is reported as 51.1%. The CLint scaled ([2]; rat, pH 7.4) was 41 mL/min/kg, the half-life ([2]; rat, pH 7.4) was 1.01 h and the “OGD/R damage when administered at different time points” value (SH-SY5Y cells; 100 nM, CCK-8) was “consistently alleviated OGD/R damage”. For the same compound, the EC50 (SH-SY5Y cells; SH-SY5Y, DHRS3-OE (DHRS3 overexpression plasmid), read-out: EC50 of cytoprotection against OGD/R) was 183 nM, the EC50 (SH-SY5Y cells; SH-SY5Y, NC-OE, read-out: EC50 of cytoprotection against OGD/R) was 53 nM and the EC50 (SH-SY5Y cells; read-out: EC50 against OGD/R damage) was 19.7 nM.
